For one data set, the target named is T1, androgen receptor (AR) (Homo sapiens, UniProt P10275).
T1 construct: transfecting C2C12 cells with a plasmid containing full-length AR along with an AR response element linked to luciferase; expressed in transfected cells; host or cells: mouse myoblastic C2C12 cells (ATCC CRL-1772), transient transfection with Lipofectamine 2000
T1 sequence (P10275 1-920): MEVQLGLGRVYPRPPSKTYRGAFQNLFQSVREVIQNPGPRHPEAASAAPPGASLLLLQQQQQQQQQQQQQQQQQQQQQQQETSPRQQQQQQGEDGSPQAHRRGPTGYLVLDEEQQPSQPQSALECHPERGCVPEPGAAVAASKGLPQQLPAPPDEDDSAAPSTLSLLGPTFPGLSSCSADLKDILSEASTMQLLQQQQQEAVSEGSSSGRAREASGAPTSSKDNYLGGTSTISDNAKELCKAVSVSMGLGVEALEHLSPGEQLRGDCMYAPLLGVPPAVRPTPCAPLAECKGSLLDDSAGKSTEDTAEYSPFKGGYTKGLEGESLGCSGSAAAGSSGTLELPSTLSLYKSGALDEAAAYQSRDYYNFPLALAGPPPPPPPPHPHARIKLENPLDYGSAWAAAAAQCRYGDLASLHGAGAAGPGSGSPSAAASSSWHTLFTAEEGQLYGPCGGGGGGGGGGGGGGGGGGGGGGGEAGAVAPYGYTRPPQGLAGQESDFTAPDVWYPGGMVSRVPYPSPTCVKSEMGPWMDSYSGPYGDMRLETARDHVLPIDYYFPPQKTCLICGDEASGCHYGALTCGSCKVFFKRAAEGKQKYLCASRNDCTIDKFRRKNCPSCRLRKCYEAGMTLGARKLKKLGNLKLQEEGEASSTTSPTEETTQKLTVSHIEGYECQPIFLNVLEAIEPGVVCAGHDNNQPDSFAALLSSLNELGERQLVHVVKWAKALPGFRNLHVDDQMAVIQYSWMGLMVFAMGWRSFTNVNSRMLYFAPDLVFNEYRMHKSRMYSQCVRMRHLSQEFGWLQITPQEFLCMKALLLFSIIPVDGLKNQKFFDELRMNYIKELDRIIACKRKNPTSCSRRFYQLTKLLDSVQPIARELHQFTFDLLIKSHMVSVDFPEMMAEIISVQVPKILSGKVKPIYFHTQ
In words: AR transcriptional activation luciferase reporter assay in C2C12 cells (Test 1). In kind it is cell-based. The protocol:
A suitable assay to determine the ability of a ligand to transcriptionally activate androgen receptor (AR) is carried out using mouse myoblastic C2C12 cells. The assay involves transfecting C2C12 cells with a plasmid containing full-length AR along with an AR response element linked to luciferase (2XIDR17). The luminescence read-out at the end of the assay is measured using Victor 3 and is a direct measure of the transcriptional activity. The assay has been validated using the reference compound, BMS-564929, for which EC50 values have been reported in a similar set-up. Other tool compounds that have been used for assay validation are GSK-420A, Andarine, putative Ostarine, and LGD-2226.
C2C12 cells were obtained from ATCC (Cat # CRL-1772) and maintained in DMEM modified to contain 4 mM L-glutamine, 4.5 g/L glucose, 1 mM sodium pyruvate and 1.5 g/L sodium bicarbonate and 10% FBS.
AR-FL in pcDNA 3.1(+) and 2XIDR17 in pGL4.26 plasmids prepared using Genelute plasmid miniprep kit from Sigma Cat # PLED35
• C2C12 cells were seeded in a 96-well plate in DMEM (Dulbecco's Modified Eagle Medium) without phenol red and containing 10% CS-FBS (Charcoal-stripped Fetal Bovine Serum) at 8000 cells/well. • The next day, cells were transfected with an equimolar ratio of (Androgen Receptor-Full length) AR-FL and 2XIDR17-Luciferase at a total plasmid concentration of 200 ng/well using Lipofectamine 2000 following manufacturer's protocol. • For the transfection, 83 ng of AR-FL and 117 ng of 2XIDR17-Luciferase were in 12.5 μl of OptiMEM—Mix A. 0.4 μl of Lipofectamine 2000 was added to 12.5 μl of OptiMEM and incubated for 5 min at room temperature—Mix B. The two mixes A and B were mixed and incubated at room temperature for an additional fifteen minutes. An additional 50 μl of OptiMEM was added, gently mixed and this mixture was added to the cells in the 96-well plate. The above quantities are requirements per well of a 96-well plate. Master mixes were made for the entire plate, with proportional quantity of reagents being used. • 5 h after transfection, compounds were added to the wells in DMEM without phenol red and containing 10% CS-FBS, maintaining a final DMSO concentration of 0.5%. A typical dose response curve starts at 10 μM and includes a 7-point, log dilution, done in triplicates. • After overnight incubation with the compounds, 100 ul of working solution of Steadyglow reagent was added to the wells. • The plates were placed in a shaker for 15 min at the end of which the lysate containing luciferase was transferred to a white flat-bottom plate and read under a luminescence setting in Victor. • Background subtracted counts (Luminescence from DMSO control wells is considered the background) are used to calculate percentage activity, expressed relative to activity with 1 μM (Dihydrotestosterone) DHT (at least two sets of triplicates for 1 μM DHT are included per plate). Data Fitting: • The EC50 curves for the compounds for 8 compound concentrations were fitted by the respective function using non-linear least-squares regression in Graphpad Prism 4.0 (Graphpad Software, San Diego, Calif., USA).

The subject of data set [1] is orchidectomized male Wistar rats. Nature of the data set: In vivo modified Hershberger assay (Test 2). Set-up: species or system rat. The following applies: for luteinizing hormone (LH) levels / weights of levator ani compared to prostate: 14 days treatment; for luteinizing hormone (LH) levels: in comparison to ORX animals; for plasma drug concentration: day 15, 3 hours after last dose; for weights of levator ani compared to prostate: orchidectomized male rats. The protocol:
The test article Testosterone Propionate is dissolved using 10% ethanol, 90% corn oil. Ostarine is suspended in 1% CMC, 0.1% Tween-80, water. Compounds of examples 1 and 5 are dissolved in 50% PEG 200 and 50% of saline. Ostarine is administered orally at 1 ml/kg volume. Testosterone Propionate, Compounds of examples 1 and 5 are administered subcutaneously to 14 days prior orchidectomized male rats at 1 ml per kg body weight for a period of 14 days. Each group of 6 rats receives dosages of 0.01, 0.1, 1 and 10 mg/kg. 6 animals each serves as sham control and ORX control and are administered vehicle at 1 ml/kg.
Testosterone Propionate is subcutaneously administered at doses of 0.03, 0.1, 0.3, 1.3 and 10 mg/kg. Ostarine is given orally at doses of 0.001, 0.003, 0.01, 0.03, 0.1, 0.3, 1.3 and 10 mg/kg.
The various investigations like mortality, clinical signs, body weight, food consumption, drug concentration analysis (day 15), clinical pathology and gross pathology parameters are performed on all groups.
Evaluation of Testosterone Propionate, Ostarine, examples 1 and 5 in modified Hershberger assay in male wistar rats was conducted at the Department of Preclinical Biology, Aurigene Discovery Technologies Ltd., Bangalore, India.

What is called pEC50 is the negative decadic logarithm of the EC50, by convention in mol/L.

pEC50: −log10 of the molar value. Read-outs that look alike come from different tables or passages of the source.

For `CO[C@@H]1C(c2ccc(C#N)c(Cl)c2C)=NN2CC[C@H](O)[C@@H]12` [Example 1, 2-chloro-4-((3S,3aS,4S)-4-hydroxy-3-methoxy-3a,4,5,6-tetrahydro-3H-pyrrolo[1,2-b]pyrazol-2-yl)-3-methylbenzonitrile], on androgen receptor (AR) (mouse myoblastic C2C12 cells transfected with AR-FL and 2XIDR17-luciferase, read-out: Biological activity (C2C12 cell) EC50), the pEC50 was 9.30. In data set [1], the “luteinizing hormone (LH) levels” value is on record as “concurrent decrease of LH levels”, the plasma drug concentration result is listed as “dose dependent increase” and the “weights of levator ani compared to prostate” value (“weights … compared to prostate” below) is “dose dependent selective increase in weights of levator ani compared to prostate”.
At androgen receptor (AR), `CCO[C@@H]1C(c2ccc(C#N)c(Cl)c2C)=NN2CC[C@H](O)[C@@H]12` [Example 5, 2-chloro-4-((3S,3aS,4S)-3-ethoxy-4-hydroxy-3a,4,5,6-tetrahydro-3H-pyrrolo[1,2-b]pyrazol-2-yl)-3-methylbenzonitrile] gave a negative-log EC50 (pEC50) of 8.92. In data set [1], the “luteinizing hormone (LH) levels” value is reported as “concurrent decrease of LH levels”, the plasma drug concentration entry is listed as “dose dependent increase” and the “weights … compared to prostate” value was “dose dependent selective increase in weights of levator ani compared to prostate”.
Consider `COCCO[C@@H]1C(c2ccc(C#N)c(Cl)c2C)=NN2CC[C@@H](F)[C@@H]12` [Example 22, 2-chloro-4-((3S,3aR,4R)-4-fluoro-3-(2-methoxyethoxy)-3a,4,5,6-tetrahydro-3H-pyrrolo[1,2-b]pyrazol-2-yl)-3-methylbenzonitrile], for which the pEC50 on androgen receptor (AR) was 9.01.
On the same count and under the same terms, the figure for `Cc1c(C2=NN3CC[C@@H](F)[C@H]3[C@@H]2OCCF)ccc(C#N)c1Cl` [Example 23, 2-chloro-4-((3S,3aR,4R)-4-fluoro-3-(2-fluoroethoxy)-3a,4,5,6-tetrahydro-3H-pyrrolo[1,2-b]pyrazol-2-yl)-3-methylbenzonitrile] is 9.39; for `COCCO[C@@H]1C(c2ccc(C#N)c(Cl)c2C)=NN2CC(F)(F)C[C@@H]12` [Example 24, 2-chloro-4-((3S,3aS)-5,5-difluoro-3-(2-methoxyethoxy)-3a,4,5,6-tetrahydro-3H-pyrrolo[1,2-b]pyrazol-2-yl)-3-methylbenzonitrile] it is 8.25.
The same measure, in the same setting: the figure for `CO[C@@H]1C(c2ccc(C#N)c(Cl)c2C)=NN2C[C@H](O)[C@H](O)[C@@H]12` [Example 25, 2-chloro-4-((3S,3aS,4R,5S)-4,5-dihydroxy-3-methoxy-3a,4,5,6-tetrahydro-3H-pyrrolo[1,2-b]pyrazol-2-yl)-3-methylbenzonitrile] is 7.29; for `COCCO[C@@H]1C(c2ccc(C#N)c(Cl)c2C)=NN2C[C@H](O)C[C@@H]12` [Example 26] it is 6.80.
The same measure, in the same setting: as for `COCCO[C@@H]1C(c2ccc(C#N)c(Cl)c2C)=NN2C[C@@H](F)C[C@@H]12` [Example 27], the figure is 7.18; as for `COCCO[C@@H]1C(c2ccc(C#N)c(Cl)c2C)=NN2CC(=O)C[C@@H]12` [Example 28], 6.76; as for `COCCCO[C@@H]1C(c2ccc(C#N)c(Cl)c2C)=NN2C[C@H](O)C[C@@H]12` [Example 29], 7.40.
`COCCCO[C@@H]1C(c2ccc(C#N)c(Cl)c2C)=NN2CC(=O)C[C@@H]12` [Example 30] gave a negative-log EC50 (pEC50) on androgen receptor (AR) of 7.25.
On the same count and under the same terms, as for `COCCCO[C@@H]1C(c2ccc(C#N)c(Cl)c2C)=NN2CC(F)(F)C[C@@H]12` [Example 31], the figure is 7.94.
Regarding `C[C@](O)(COc1ccc(C#N)cc1)C(=O)Nc1ccc(C#N)c(C(F)(F)F)c1` [Ostarine, reference compound], in data set [1], the “luteinizing hormone (LH) levels” value is recorded as “concurrent decrease of LH levels”, the plasma drug concentration result was “dose dependent increase” and the “weights … compared to prostate” value is on record as “dose dependent selective increase in weights of levator ani compared to prostate”.
`CCC(=O)O[C@H]1CC[C@H]2[C@@H]3CCC4=CC(=O)CC[C@]4(C)[C@H]3CC[C@]12C` [Testosterone Propionate, reference compound]: the “weights … compared to prostate” value in data set [1] is listed as “did not show any selectivity on levator ani versus prostate”.

Values taken from patent publication US9051326B2, “Pyrazoline derivatives and their use as selective androgen receptor modulators” (NOVARTIS AG, priority 2011, dated 2015).
